As usually defined, the EC50 is the concentration needed to bring the measured effect to its halfway point. For orientation: AC50 means the midpoint of the concentration-response curve, whichever way the signal moves.

The values below come from ChEMBL document CHEMBL1201862, “PubChem BioAssay data set” (2004).

The target of experiment [1] is T1, Tyrosine-protein phosphatase non-receptor type 22 (Homo sapiens, UniProt Q9Y2R2).
T1 sequence (Q9Y2R2 whole entry): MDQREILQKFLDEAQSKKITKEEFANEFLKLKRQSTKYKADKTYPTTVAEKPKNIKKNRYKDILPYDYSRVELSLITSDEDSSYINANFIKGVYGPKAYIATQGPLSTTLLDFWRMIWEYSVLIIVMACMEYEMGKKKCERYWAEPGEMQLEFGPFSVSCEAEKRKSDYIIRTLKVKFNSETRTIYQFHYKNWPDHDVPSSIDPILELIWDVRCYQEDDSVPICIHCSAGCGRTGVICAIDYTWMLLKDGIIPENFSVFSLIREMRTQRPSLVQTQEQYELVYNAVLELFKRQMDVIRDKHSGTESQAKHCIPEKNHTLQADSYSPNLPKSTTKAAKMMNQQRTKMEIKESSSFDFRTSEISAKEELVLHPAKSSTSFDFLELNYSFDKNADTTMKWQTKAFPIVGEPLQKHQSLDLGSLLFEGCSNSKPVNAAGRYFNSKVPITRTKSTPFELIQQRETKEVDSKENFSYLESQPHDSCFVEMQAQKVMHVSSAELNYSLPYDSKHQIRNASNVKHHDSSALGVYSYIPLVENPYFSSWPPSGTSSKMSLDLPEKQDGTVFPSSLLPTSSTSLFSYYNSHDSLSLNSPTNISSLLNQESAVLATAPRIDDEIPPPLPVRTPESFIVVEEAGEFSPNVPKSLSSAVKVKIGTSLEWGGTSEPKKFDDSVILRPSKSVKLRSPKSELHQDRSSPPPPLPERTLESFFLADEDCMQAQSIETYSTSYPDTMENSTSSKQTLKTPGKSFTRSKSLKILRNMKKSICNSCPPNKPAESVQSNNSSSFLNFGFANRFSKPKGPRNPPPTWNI
The experiment in a line: LYP1 Fluorescent Assay using OMFP substrate for In Vitro dose response studies. [Related pubchem assays (depositor defined):AID1779, AID1784, AID435024].

Experiment [2] has as its target Voltage-gated N-type calcium channel alpha-1B subunit/Amyloid beta A4 precursor protein-binding family A member 1 (Homo sapiens, UniProt Q00975+Q02410). In kind it is protein assay.
Experiment [3] deals with T2, Tyrosine-protein phosphatase non-receptor type 7 (Homo sapiens, UniProt P35236).
T2 sequence (P35236 whole entry): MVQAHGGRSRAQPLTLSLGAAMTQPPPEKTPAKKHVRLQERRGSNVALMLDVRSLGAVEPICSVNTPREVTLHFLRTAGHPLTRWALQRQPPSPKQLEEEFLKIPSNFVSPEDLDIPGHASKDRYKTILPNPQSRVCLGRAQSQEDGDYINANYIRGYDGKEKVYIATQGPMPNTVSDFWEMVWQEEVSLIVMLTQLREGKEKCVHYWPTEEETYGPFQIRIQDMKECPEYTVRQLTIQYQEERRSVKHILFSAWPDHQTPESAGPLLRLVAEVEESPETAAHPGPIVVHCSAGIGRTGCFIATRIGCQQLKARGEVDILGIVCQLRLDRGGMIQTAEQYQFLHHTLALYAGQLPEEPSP
The experiment in a line: HTS HePTP Fluorescent Assay using OMFP substrate for In Vitro dose response studies. [Related pubchem assays (depositor defined):AID1059, AID1077, AID1784, AID2068, AID2085, AID435032, AID521]. In kind it is functional.

Experiment [4] concerns the target T1, Tyrosine-protein phosphatase non-receptor type 22. The experiment in a line: inhibitors of LYP phosphatase, biochemical, fluorescence intensity, uHTS (AID 1779).
The target of experiment [5] is Dual specificity protein phosphatase 3 (Homo sapiens, UniProt P51452). The experiment in a line: VHR1 phosphatase inhibitors, biochemical (AID 1878).
In experiment [6] the target is Troponin, cardiac muscle (Homo sapiens, UniProt P19429+P45379+P63316). The experiment in a line: inhibitors of cardiac thin filament calcium sensitivity, dose response, biochemical, fluorescence, cardiac regulated thin filaments, triplicate IC50 (AID 504742). The class given is protein-complex assay.
Experiment [7] has as its target T1, Tyrosine-protein phosphatase non-receptor type 22. In kind it is functional.
Experiment [8] deals with Small ubiquitin-related modifier 1 (Homo sapiens, UniProt P63165). The experiment in a line: inhibitors of SUMO1 peptide binding, dose response, biochemical, fluorescence polarization, uHTS hits (AID 624382). As to conditions: read-out: IC50_Mean. The class given is functional. For orientation: Fluorescence polarisation rises when a labelled molecule tumbles more slowly, as on binding a larger partner.

The target in experiment [9] is Probable nicotinate-nucleotide adenylyltransferase (Staphylococcus aureus (strain N315), UniProt P65502). In kind it is functional, Staphylococcus aureus subsp. aureus N315. As to conditions: read-out: IC50_Mean.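 Further: confirmatory dose-response retesting of NadD inhibitor hits first found in an ultra-high-throughput screen.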
The target of experiment [10] is Beta-galactosidase (Escherichia coli, UniProt Q8VNN2). The experiment in a line: PubChem AID 485352. In kind it is functional.
Sequence of Beta-galactosidase (Q8VNN2 whole entry): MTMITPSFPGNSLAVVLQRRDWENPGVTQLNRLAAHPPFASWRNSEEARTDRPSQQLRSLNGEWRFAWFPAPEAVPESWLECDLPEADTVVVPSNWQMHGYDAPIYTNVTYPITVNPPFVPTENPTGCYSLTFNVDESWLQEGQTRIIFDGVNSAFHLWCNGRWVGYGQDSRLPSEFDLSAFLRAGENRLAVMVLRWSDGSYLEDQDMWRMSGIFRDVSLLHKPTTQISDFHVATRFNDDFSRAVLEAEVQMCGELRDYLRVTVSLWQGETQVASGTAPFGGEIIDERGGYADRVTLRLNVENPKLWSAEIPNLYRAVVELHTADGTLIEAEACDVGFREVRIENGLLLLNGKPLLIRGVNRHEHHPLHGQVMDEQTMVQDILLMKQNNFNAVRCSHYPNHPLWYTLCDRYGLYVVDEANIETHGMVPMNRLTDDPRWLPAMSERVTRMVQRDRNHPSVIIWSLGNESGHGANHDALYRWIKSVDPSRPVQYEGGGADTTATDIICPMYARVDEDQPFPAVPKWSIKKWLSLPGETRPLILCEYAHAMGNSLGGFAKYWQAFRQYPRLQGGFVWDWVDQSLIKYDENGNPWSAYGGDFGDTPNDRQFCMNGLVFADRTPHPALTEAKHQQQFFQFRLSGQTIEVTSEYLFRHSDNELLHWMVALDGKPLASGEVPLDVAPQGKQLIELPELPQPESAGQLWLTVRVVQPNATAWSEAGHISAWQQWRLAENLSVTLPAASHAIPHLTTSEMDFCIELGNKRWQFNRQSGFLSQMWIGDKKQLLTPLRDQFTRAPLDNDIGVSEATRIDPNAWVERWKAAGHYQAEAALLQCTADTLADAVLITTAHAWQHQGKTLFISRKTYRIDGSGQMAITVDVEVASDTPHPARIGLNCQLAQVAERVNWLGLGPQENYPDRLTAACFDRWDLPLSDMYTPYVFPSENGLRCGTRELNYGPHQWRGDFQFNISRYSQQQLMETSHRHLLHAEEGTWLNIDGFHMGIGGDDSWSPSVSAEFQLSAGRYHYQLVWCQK
For experiment [11], the target named is T3, Type-1 angiotensin II receptor (Homo sapiens, UniProt P30556).
T3 sequence (P30556 whole entry): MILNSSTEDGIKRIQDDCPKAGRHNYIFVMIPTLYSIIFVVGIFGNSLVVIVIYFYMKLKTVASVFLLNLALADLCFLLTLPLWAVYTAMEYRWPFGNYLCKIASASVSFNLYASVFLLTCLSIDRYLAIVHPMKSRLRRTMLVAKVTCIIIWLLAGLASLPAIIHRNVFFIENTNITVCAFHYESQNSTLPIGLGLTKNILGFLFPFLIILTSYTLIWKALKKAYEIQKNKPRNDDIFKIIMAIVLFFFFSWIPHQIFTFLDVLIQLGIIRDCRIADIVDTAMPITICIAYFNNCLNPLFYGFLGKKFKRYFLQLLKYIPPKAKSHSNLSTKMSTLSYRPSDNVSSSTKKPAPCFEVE
The experiment in a line: AT1 receptor antagonists, dose response, selectivity assay for APJ receptor antagonist project, cell-based, uHTS hits (AID 463214).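 Further: antagonist potency against angiotensin II stimulated AT1 response.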 In kind it is functional.

In experiment [12] the test system is BJ. The experiment in a line: cytotoxicity toward Ras-transformed BJeLR fibroblasts, dose response, cell-based, alamar blue fluorescence, cherrypicked samples (AID 2631).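 Further: confirmatory dose-response assay in RAS-dependent BJ fibroblasts engineered with TERT, LT and ST, with cytotoxicity read by fluorescence.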 In kind it is functional. As to conditions: Homo sapiens.
The nature of experiment [13]: HepG2 cell cytotoxicity, dose response, cytotoxicity control for Shn3 inhibitor project, CellTiter-Glo, cherry-picked (AID 624134). In kind it is functional, cell-based. In general terms: ATP-based viability assays read luminescence as a measure of living cells.
Experiment [14] can be described thus: control 3'UTR Renilla luciferase suppression, dose response, counter-screen for Shn3 inhibitor project, cell-based, Clone20-Shn3RL, cherry-picked (AID 624133). In kind it is functional. Background: A counterscreen serves to expose hits that act by an unwanted route or on another target.
Experiment [15] concerns the target Genome polyprotein (dengue virus type 2, UniProt P29990). The experiment in a line: Dengue-2 NS5 methyltransferase inhibitors, primary screen, biochemical, confirmation dose response (AID 588689). In kind it is functional.
The target in experiment [16] is T4, Caspase-6 (Homo sapiens, UniProt P55212).
T4 sequence (P55212 whole entry): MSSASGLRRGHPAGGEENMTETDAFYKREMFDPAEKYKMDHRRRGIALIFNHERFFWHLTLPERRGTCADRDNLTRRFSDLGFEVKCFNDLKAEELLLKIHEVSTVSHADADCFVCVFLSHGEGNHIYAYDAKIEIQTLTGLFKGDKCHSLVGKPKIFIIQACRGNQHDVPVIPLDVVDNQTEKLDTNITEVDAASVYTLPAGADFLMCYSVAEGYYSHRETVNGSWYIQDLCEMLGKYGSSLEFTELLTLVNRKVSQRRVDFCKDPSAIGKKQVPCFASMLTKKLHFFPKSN
The experiment in a line: human caspase-6 inhibitors, dose response, biochemical, VEID-R110 fluorescence, cherry-pick (AID 720632).

Activity calls are given as the source filed them.

Sequence of Genome polyprotein (P29990 2492-3391 limits assumed): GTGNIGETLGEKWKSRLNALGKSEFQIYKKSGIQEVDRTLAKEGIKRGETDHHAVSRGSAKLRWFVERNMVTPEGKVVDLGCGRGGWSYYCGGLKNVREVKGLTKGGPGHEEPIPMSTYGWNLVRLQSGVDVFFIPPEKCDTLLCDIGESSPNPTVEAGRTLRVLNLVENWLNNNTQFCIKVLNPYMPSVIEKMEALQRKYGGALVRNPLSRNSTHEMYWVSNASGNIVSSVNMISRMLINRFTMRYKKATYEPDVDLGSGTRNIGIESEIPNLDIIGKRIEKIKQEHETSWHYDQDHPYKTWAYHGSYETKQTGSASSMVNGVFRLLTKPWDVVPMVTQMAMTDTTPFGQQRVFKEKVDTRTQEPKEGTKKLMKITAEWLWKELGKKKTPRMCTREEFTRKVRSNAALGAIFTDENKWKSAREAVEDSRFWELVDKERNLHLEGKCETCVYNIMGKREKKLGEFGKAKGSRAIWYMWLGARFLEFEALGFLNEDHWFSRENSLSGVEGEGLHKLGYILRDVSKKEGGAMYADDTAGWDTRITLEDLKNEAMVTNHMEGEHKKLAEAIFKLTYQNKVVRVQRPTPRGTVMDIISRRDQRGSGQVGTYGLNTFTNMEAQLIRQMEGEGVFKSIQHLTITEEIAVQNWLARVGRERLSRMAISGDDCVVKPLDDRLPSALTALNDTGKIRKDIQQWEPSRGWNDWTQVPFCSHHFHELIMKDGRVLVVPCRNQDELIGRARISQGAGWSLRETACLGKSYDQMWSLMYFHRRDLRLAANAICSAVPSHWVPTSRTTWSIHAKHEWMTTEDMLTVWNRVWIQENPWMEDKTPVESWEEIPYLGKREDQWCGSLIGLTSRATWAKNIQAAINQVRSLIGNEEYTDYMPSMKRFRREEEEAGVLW
Sequence of Voltage-gated N-type calcium channel alpha-1B subunit/Amyloid beta A4 precursor protein-binding family A member 1 (Q00975 whole entry): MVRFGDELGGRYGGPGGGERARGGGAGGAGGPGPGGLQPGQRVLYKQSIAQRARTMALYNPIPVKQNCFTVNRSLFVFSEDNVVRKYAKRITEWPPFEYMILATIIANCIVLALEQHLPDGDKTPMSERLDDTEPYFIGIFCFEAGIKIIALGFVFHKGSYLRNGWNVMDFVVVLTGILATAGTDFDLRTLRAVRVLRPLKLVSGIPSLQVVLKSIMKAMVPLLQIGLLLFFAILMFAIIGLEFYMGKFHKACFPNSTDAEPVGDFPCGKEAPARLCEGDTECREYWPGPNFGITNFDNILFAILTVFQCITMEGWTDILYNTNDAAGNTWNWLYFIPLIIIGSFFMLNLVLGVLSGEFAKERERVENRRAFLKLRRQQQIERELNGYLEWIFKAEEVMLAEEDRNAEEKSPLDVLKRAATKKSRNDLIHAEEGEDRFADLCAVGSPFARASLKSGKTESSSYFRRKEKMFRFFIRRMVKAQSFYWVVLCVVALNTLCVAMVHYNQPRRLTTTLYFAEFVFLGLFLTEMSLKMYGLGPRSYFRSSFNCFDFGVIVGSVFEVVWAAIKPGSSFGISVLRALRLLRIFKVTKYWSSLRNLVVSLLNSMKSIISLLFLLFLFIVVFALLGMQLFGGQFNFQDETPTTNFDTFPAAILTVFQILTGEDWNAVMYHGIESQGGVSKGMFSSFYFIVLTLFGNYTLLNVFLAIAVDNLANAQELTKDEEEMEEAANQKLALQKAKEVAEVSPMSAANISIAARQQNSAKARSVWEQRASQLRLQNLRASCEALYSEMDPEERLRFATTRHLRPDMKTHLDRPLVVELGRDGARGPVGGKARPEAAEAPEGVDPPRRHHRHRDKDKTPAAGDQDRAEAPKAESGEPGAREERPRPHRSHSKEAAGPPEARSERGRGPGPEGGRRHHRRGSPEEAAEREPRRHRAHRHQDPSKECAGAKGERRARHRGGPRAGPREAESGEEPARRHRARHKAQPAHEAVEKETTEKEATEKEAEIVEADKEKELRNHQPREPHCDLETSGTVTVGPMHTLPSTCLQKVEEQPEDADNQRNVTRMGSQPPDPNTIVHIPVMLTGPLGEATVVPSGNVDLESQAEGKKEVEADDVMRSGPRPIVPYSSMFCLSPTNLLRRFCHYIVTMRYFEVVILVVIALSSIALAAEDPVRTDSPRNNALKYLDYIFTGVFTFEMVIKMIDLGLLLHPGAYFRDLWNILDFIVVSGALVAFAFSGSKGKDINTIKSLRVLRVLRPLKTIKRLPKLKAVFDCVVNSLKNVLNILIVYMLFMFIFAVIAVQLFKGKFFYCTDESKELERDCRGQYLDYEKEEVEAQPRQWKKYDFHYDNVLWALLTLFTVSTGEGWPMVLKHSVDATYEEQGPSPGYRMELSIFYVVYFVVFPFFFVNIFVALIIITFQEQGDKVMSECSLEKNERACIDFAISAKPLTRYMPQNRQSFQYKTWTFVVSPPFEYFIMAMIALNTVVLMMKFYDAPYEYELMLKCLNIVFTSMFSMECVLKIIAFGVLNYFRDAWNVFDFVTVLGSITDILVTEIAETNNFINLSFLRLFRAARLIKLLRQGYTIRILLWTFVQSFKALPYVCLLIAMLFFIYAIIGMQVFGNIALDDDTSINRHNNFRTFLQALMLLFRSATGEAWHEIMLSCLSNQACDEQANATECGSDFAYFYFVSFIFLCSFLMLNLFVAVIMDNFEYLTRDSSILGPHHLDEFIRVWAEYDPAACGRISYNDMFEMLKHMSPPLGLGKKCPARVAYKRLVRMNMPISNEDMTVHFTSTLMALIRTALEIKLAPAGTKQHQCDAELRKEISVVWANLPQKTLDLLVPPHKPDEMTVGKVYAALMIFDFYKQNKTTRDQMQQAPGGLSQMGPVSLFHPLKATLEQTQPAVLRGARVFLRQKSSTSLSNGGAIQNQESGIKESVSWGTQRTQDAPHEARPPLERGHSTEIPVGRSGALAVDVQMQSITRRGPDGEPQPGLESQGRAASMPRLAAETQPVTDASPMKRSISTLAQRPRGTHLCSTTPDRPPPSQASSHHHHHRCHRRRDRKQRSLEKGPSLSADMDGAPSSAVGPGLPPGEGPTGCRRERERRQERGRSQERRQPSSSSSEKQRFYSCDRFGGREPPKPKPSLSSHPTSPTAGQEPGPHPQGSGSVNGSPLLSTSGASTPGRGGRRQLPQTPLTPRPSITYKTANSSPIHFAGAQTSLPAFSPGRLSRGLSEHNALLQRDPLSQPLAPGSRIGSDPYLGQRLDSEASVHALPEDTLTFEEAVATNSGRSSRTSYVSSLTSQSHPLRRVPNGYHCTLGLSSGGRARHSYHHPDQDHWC
Sequence of Voltage-gated N-type calcium channel alpha-1B subunit/Amyloid beta A4 precursor protein-binding family A member 1 (Q02410 whole entry): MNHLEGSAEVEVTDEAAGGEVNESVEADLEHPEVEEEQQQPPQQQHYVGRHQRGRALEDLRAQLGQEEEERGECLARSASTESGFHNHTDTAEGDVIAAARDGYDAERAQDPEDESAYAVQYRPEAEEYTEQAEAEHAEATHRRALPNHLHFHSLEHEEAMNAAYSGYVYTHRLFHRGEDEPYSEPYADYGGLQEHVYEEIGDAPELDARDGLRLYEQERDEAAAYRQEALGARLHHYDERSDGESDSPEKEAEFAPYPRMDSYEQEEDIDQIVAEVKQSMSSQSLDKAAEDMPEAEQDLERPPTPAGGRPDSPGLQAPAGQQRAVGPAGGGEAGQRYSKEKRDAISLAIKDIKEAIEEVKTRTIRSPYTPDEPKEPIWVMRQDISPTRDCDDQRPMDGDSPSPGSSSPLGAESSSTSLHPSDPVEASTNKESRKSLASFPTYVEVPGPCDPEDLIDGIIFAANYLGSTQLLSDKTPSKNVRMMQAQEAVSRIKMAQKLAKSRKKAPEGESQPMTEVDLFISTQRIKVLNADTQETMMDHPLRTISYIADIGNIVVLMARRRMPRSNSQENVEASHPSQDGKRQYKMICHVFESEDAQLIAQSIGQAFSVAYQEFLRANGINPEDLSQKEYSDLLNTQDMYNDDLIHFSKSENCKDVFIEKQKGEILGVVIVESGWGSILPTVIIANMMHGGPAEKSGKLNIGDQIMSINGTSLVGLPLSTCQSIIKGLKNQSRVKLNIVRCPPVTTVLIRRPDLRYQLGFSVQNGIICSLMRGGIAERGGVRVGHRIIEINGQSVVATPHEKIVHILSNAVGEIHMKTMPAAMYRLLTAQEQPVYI

Take `O=C(O)c1cccc(-n2cccc2/C=C2/NC(=O)N(c3ccc(Cl)cc3)C2=O)c1`: the IC50 in [1] was 4.54 µM (active); in experiment [2] it was 9.85 µM (active); in experiment [3] it was 6.06 µM (active); in experiment [4], 5.47 µM (active); in experiment [5] it was < 1.23 µM (inactive); in experiment [6], 3.45 µM (active). The results for the IC50 in [7], in experiment [8] and in [9] were 4.4 µM (active), 21.3 µM (inactive) and 27.1 µM (active), respectively.
Consider `C=C1C(=O)O[C@@H]2C[C@@H](C)[C@@H]3C=CC(=O)[C@@]3(C)[C@@H](OC(=O)CC(=O)O[C@H]3[C@@H]4C(=C)C(=O)O[C@@H]4C[C@@H](C)[C@@H]4C=CC(=O)[C@]43C)[C@H]12`, for which the values for the EC50 in [10] and in experiment [12] were > 40 µM (inactive) and 0.0525 µM (active), respectively. Moreover, the IC50 in experiment [11] was 6.05 µM (active). For the same compound, the AC50 in [13] is 0.895 µM (active); in [14], 0.28 µM (active).
Turning to `O=S(=O)(O)c1cc(Cl)cc(N=Nc2ccc(O)cc2O)c1O`, the IC50 in experiment [15] is 58.3 µM (active). Further, in [16], the AC50 is 2.44 µM (active).
